Laboratory results: patent US9314510B2, “Human laminin α2 chain LG3 domain and active peptides promoting cell adhesion, spreading, migration, and neurite outgrowth” (SNU R&DB Foundation, priority 2011, dated 2016)
Ends that are not written are not given here.

Assays:
PKCδ = assay: Tyrosine phosphorylation of PKCδ (immunoprecipitation and Western blotting); format: cell-based, rat; conditions: PC12 cells on coated dishes, 30 min
Experimental: PC12 cells were incubated on dishes coated with laminin, rLG3, or the Ln2-LG3-P2 peptide for 30 min and the interaction of PKCδ with phosphotyrosine was examined using immunoprecipitation and Western blotting.

FAK Tyr-397 = assay: FAK phosphorylation by western blotting; format: cell-based, rat; conditions: PC12 cells on coated dishes; 15, 30, 60 min
Experimental: For measuring FAK phosphorylation, specifically, PC12 cells were starved for 12 h by replacing RPMI 1640 medium with 0.1% FBS. PC12 cells (2×10^6 cells) were plated on 60-mm dishes precoated with laminin (5 μg/mL), rLG3 (25 μg/mL), or Ln2-LG3-P2 (25 μg/well), and allowed to adhere for the indicated times (15 min, 30 min, and 60 min). Cells were washed with ice-cold PBS and lysed with 200 μL of RIPA buffer (50 mM Tris-HCl, pH 7.4, 150 mM NaCl, 1 mM EDTA 1% Triton X-100, 1 mM PMSF, 2 mM Na3VO4, 1 mM glycerol phosphate) containing a protease inhibitor cocktail. RIPA lysates were denatured using SDS sample buffer (50 mM Tris/HCl, pH 6.8, 2% SDS, 10% glycerol, 0.1% bromophenol blue, 50 mM dithiothreitol) and analysed by SDS-PAGE. The separated proteins were electroblotted onto an Immobilon-P membrane (Millipore, Bedford, Mass.) and probed with primary antibodies to FAK Tyr-397 (Biosource, Camarillo, Calif.), FAK (Upstate Biotechnology Inc., Lake Placid, N.Y.). All blots were then detected with HRP-conjugated secondary antibodies (Cell Signaling). Signals were detected by ECL (iNtRON Biotechnology, Korea).

PC12 cells [1] = assay: Inhibition of cell migration to rLG3 by peptide pretreatment; format: cell-based, rat; conditions: PC12 cells pretreated with 500 μg/mL peptide, transwell coated with rLG3 25 μg/mL, 24 h
Experimental: (§1) PC12 cells were pretreated with 500 μg/mL of Ln2-LG3-P1, Ln2-LG3-P2, Ln2-LG3-P3, Ln2-LG3-P4, Ln2-LG3-P5 and SP (scramble peptide) (SEQ ID NO:20) for 10 min at room temperature and then cultured on plates coated with rLG3 (25 μg/mL) in serum-free medium. To observe cell adhesion, PC12 cells were incubated on the coated plates for 1 h and to observe cell spreading, PC12 cells were incubated on the coated plates for 3 h. To observe cell migration, cells were seed into the upper chamber of transwell filters coated with rLG3 (25 μg/mL) and cultured for 24 h. Cell migration was quantified by counting the number of cells that had migrated through the filter.

PC12 cells [2] = assay: Inhibition of cell spreading on rLG3 by peptide pretreatment; format: cell-based, rat; conditions: PC12 cells pretreated with 500 μg/mL peptide, rLG3 25 μg/mL, 3 h
Experimental: as §1

PC12 cells [3] = assay: Cell adhesion inhibition assay: peptide pretreatment, adhesion to rLG3-coated plates; format: cell-based, rat; conditions: rLG3 25 μg/mL, 1 h
Experimental: Specifically, PC12 cells were pretreated with the Ln2-LG3-P2 peptide in concentrations of 0, 0.2, 0.4, 0.6, 0.8, 1.0, or 1.2 μg/mL for 10 min at room temperature and then cultured on plates coated with rLG3 (25 μg/mL) for 1 h in serum-free medium.
as §1
Specifically, PC12 cells were pretreated with Ln2-LG2-P2 (500 μg/mL) and Ln2-LG3-P2A (500 μg/mL) and then, cell adhesion was observed on plates coated with rLG3 (25 μg/mL).

Schwann cells = assay: Schwann cell adhesion on coated plates; format: cell-based, human; conditions: plates coated with 62.5 μg/mL peptide, 1 h, serum-free
integrin β1 = biological target: T1, integrin β1 (Rattus norvegicus, UniProt P49134); assay: Immunoprecipitation of PKCα, PKCδ and FAK with His6-rLG3 or integrin β1; format: cell-based; conditions: PC12 cells on coated dishes, 30 min
T1 construct: whether PKCα and -δ exist as associated complexes in PC12 cells seeded on laminin-, rLG3-, and Ln2-LG3-P2-coated dishes; endogenous in cells; host or cells: PC12 cells
Experimental: Specifically, for immunoprecipitation, PC12 cells were starved for 12 h with RPMI 1640 medium containing 0.1% FBS. Cells were detached and resuspended in serum-free medium with 0.1% BSA. PC12 cells (4×10^6 cells/100-mm dish) were seeded on laminin (5 μg/mL)-, rLG3 (25 μg/mL)-, or Ln2-LG3-P2 (25 μg/well)-coated dishes and allowed to attach for 30 min at 37° C. After incubation, cells were washed with ice-cold PBS, lysed with RIPA buffer containing a protease inhibitor cocktail. The lysates were centrifuged and the supernatants were preincubated with 50 μL of immobilized protein G beads (Upstate Biotechnology Inc.) for 1 h at 4° C. to remove nonspecific binding. The supernatants were incubated with anti-His6 (Roche, Mannheim, Germany), anti-integrin (Santa Cruz Biotechnology), or anti-PKCδ (Santa Cruz Biotechnology) antibodies for 2 h at 4° C. The immunocomplexes were precipitated with immobilized protein G beads for 12 h at 4° C. After centrifugation, beads carrying the immune complexes were washed four times with RIPA buffer. Immunoprecipitates were resuspended in SDS sample buffer, boiled for 5 min, and analysed by Western blotting.

[4] = system: normal human oral keratinocytes (NHOK); assay: Cell adhesion to Ln2-LG3-P2-coated plates, NHOK; format: cell-based; conditions: NHOK at passage 2, 62.5 μg/mL, 1 h
Experimental: Normal human oral keratinocytes (NHOK) isolated from epidermal tissue of human gingiva were cultured in KGM (by Clonetics, San Diego, Calif.). Cells at passage 2 were used for the following experiments.

NIH/3T3 cells = assay: Cell adhesion to Ln2-LG3-P2-coated plates, NIH/3T3; format: cell-based, mouse; conditions: 62.5 μg/mL, 1 h
Description: The mouse embryo fibroblast cell line NIH/3T3 was purchased from the American Type Culture Collection (Manassas, Va.) and cultured in Dulbecco's modified Eagle's medium (DMEM) containing 10% FBS.

CV-1 cells = assay: Cell adhesion to Ln2-LG3-P2-coated plates, CV-1; format: cell-based, African green monkey; conditions: 62.5 μg/mL, 1 h
Description: The normal African green monkey kidney fibroblast cell line CV-1 was purchased from the American Type Culture Collection (Manassas, Va.) and cultured in DMEM containing 10% FBS.

[5] = system: normal human dermal fibroblasts (NHDF); assay: Cell adhesion to Ln2-LG3-P2-coated plates, NHDF; format: cell-based; conditions: NHDF at passage 4, 62.5 μg/mL, 1 h
Experimental: Normal human dermal fibroblasts (NHDF) isolated from hypodermal tissue of normal human skin were cultured in DMEM containing antibiotics and 10% FBS. Cells at passage 4 were used for the following experiments.

PC12 cells [6] = assay: Inhibition of cell adhesion to laminin by rLG3 / rLG3-M1 pretreatment; format: cell-based, rat; conditions: laminin 5 μg/mL
Experimental: In addition, PC12 cells were pretreated with rLG3 (250 or 500 μg/mL) or vehicle (phosphate buffer, pH 3.0) for 30 min and then seeded on plates coated with laminin (5 μg/mL) for 30 min in serum-free medium and cell adhesion was observed.

T1 sequence (P49134 21-799): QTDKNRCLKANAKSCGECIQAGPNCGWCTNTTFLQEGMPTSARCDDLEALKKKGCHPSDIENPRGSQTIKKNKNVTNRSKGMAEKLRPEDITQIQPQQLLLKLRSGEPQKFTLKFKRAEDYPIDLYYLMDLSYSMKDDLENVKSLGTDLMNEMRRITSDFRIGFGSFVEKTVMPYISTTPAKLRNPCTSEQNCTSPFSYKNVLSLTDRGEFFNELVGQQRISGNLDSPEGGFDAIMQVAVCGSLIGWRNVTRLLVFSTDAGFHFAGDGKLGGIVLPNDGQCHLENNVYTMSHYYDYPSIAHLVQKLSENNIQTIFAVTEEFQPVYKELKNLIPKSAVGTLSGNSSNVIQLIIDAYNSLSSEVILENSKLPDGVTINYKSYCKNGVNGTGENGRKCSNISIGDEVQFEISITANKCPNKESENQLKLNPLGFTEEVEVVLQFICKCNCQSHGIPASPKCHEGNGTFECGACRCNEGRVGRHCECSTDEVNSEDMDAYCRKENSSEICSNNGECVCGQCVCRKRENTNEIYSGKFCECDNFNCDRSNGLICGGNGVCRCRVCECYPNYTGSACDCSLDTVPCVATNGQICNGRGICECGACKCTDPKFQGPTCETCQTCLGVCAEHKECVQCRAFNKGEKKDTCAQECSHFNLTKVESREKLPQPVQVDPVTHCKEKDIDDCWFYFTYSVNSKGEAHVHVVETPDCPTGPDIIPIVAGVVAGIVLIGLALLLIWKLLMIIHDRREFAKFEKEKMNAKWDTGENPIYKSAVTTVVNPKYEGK

proteins in integrin β1 immunoprecipitates (integrin β1) | proteins in anti-His6 immunoprecipitates (integrin β1) | Molecule | tyrosine phosphorylation of PKCδ (PKCδ) | time at which FAK phosphorylation levels at Tyr-397 peaked (FAK Tyr-397) [min] | inhibition of cell migration to rLG3 protein (PC12 cells [1]) | inhibition of cell spreading to rLG3 protein (PC12 cells [2]) | cell adhesion to rLG3 after peptide pretreatment (PC12 cells [3]; PC12 cells pretreated with 0 to 1.2 μg/mL peptide for 10 min) | inhibition of cell adhesion to rLG3 protein (PC12 cells [3]; PC12 cells pretreated with 500 μg/mL peptide) | Schwann cell adhesion (Schwann cells) | cell adhesion activity [4] | cell adhesion activity (NIH/3T3 cells) | cell adhesion activity (CV-1 cells) | cell adhesion activity [5] | inhibition of cell adhesion to laminin (PC12 cells [6]; PC12 cells pretreated with 250 μg/mL for 30 min) [%] | inhibition of cell adhesion to laminin (PC12 cells [6]; PC12 cells pretreated with 500 μg/mL for 30 min) [%]
PKCα, PKCδ, and FAK were also observed |  | RNIPPFEGCIWN (RNIPPFEGCIWN-NH2; listed as Homo sapiens) [Ln2-LG3-P2, 12-mer peptide, position 2675 to 2686 in human laminin α2 chain] | increased | 15 | inhibited cell spreading and migration | inhibited cell spreading and migration | decreased in a dose-dependent manner | approximately 40% | strong effect | strong cell adhesion activity | strong cell adhesion activity | strong cell adhesion activity | strong cell adhesion activity |  | 
PKCα, PKCδ, and FAK were also observed |  | laminin [reference compound] | increased | 15 |  |  |  |  |  |  |  |  |  |  | 
PKCα, PKCδ, and FAK were also observed | PKCα, PKCδ, and FAK were observed | rLG3: recombinant His6-tagged human laminin α2 chain LG3 domain, amino acids 2537 to 2745 (protein, listed as Homo sapiens, His6 tag) VELSPVPIDVGTEINLSFSTKNESGIILLGSGGTPAPPRRKRRQTGQAYYVILLNRGRLEVHLSTGARTMRKIVIRPEPNLFHDGREHSVHVERTRGIFTVQVDENRRYMQNLTVEQPIEVKKLFVGGAPPEFQPSPLRNIPPFEGCIWNLVINSVPMDFARPVSFKNADIGRCAHQKLREDEDGAAPAEIVIQPEPVPTPAFPTPTPV | increased | 15 |  |  |  |  |  |  |  |  |  | 23 | 48
